According to PubChem BioAssay (NCI):
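All cell lines were grown in 96-well plates and treated with compound for 48 hours. TGI denotes the concentration required for complete inhibition of growth.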

Experiments:
Test in all cases: NCI anticancer screen, dose series, 48 h
K-562 leukemia = test system: K-562 leukemia
NCI/ADR-RES ovarian = test system: NCI/ADR-RES ovarian
UO-31 renal = test system: UO-31 renal
UACC-62 melanoma = test system: UACC-62 melanoma
ACHN renal = test system: ACHN renal
CAKI-1 renal = test system: CAKI-1 renal
A498 renal = test system: A498 renal
SK-MEL-5 melanoma = test system: SK-MEL-5 melanoma
NCI-H23 lung = test system: NCI-H23 lung
MOLT-4 leukemia = test system: MOLT-4 leukemia
OVCAR-5 ovarian = test system: OVCAR-5 ovarian
MCF7 breast = test system: MCF7 breast
MDA-MB-231 breast = test system: MDA-MB-231 breast
SNB-75 CNS = test system: SNB-75 CNS
NCI-H460 lung = test system: NCI-H460 lung
SN12C renal = test system: SN12C renal
A549 NSCLC = test system: A549 NSCLC
SNB-19 CNS = test system: SNB-19 CNS
COLO 205 colon = test system: COLO 205 colon
LOX IMVI melanoma = test system: LOX IMVI melanoma
CCRF-CEM leukemia = test system: CCRF-CEM leukemia
MDA-N = test system: MDA-N
OVCAR-4 ovarian = test system: OVCAR-4 ovarian
SF-295 CNS = test system: SF-295 CNS
RPMI-8226 leukemia = test system: RPMI-8226 leukemia
HCT-15 colon = test system: HCT-15 colon
M14 melanoma = test system: M14 melanoma
NCI-H522 lung = test system: NCI-H522 lung
SK-OV-3 ovarian = test system: SK-OV-3 ovarian
SR leukemia = test system: SR leukemia
RXF 393 renal = test system: RXF 393 renal
HS 578T breast = test system: HS 578T breast
SF-268 CNS = test system: SF-268 CNS
U251 CNS = test system: U251 CNS
PC-3 prostate = test system: PC-3 prostate
786-0 renal = test system: 786-0 renal
NCI-H226 lung = test system: NCI-H226 lung
SK-MEL-2 melanoma = test system: SK-MEL-2 melanoma
HCT-116 colon = test system: HCT-116 colon
KM12 colon = test system: KM12 colon
HOP-62 NSCLC = test system: HOP-62 NSCLC
EKVX NSCLC = test system: EKVX NSCLC
HCC-2998 colon = test system: HCC-2998 colon
HL-60(TB) leukemia = test system: HL-60(TB) leukemia
IGROV1 ovarian = test system: IGROV1 ovarian
HT29 colon = test system: HT29 colon
SF-539 CNS = test system: SF-539 CNS
SW-620 colon = test system: SW-620 colon
MDA-MB-435 = test system: MDA-MB-435
MALME-3M melanoma = test system: MALME-3M melanoma
T-47D breast = test system: T-47D breast
SK-MEL-28 melanoma = test system: SK-MEL-28 melanoma
UACC-257 melanoma = test system: UACC-257 melanoma
DU-145 prostate = test system: DU-145 prostate
OVCAR-3 ovarian = test system: OVCAR-3 ovarian
OVCAR-8 ovarian = test system: OVCAR-8 ovarian
HOP-92 NSCLC = test system: HOP-92 NSCLC
TK-10 renal = test system: TK-10 renal

## C=CCNC(=S)NC=C(C(N)=O)C(N)=O
K-562 leukemia
  TGI: > 100 µM
NCI/ADR-RES ovarian
  TGI: > 100 µM
UO-31 renal
  TGI: > 100 µM
UACC-62 melanoma
  TGI: > 100 µM
ACHN renal
  TGI: > 100 µM
CAKI-1 renal
  TGI: > 100 µM
A498 renal
  TGI: 89.2 µM
SK-MEL-5 melanoma
  TGI: > 100 µM
NCI-H23 lung
  TGI: > 100 µM
MOLT-4 leukemia
  TGI: > 100 µM
OVCAR-5 ovarian
  TGI: > 100 µM
MCF7 breast
  TGI: > 100 µM
MDA-MB-231 breast
  TGI: > 100 µM
SNB-75 CNS
  TGI: > 100 µM
NCI-H460 lung
  TGI: > 100 µM
SN12C renal
  TGI: > 100 µM
A549 NSCLC
  TGI: > 100 µM
SNB-19 CNS
  TGI: > 100 µM
COLO 205 colon
  TGI: > 100 µM
LOX IMVI melanoma
  TGI: > 100 µM
CCRF-CEM leukemia
  TGI: > 100 µM
MDA-N
  TGI: > 100 µM
OVCAR-4 ovarian
  TGI: > 100 µM
SF-295 CNS
  TGI: > 100 µM
RPMI-8226 leukemia
  TGI: > 100 µM
HCT-15 colon
  TGI: > 100 µM
M14 melanoma
  TGI: > 100 µM
NCI-H522 lung
  TGI: > 100 µM
SK-OV-3 ovarian
  TGI: > 100 µM
SR leukemia
  TGI: > 100 µM
RXF 393 renal
  TGI: > 100 µM
HS 578T breast
  TGI: > 100 µM
SF-268 CNS
  TGI: > 100 µM
U251 CNS
  TGI: > 100 µM
PC-3 prostate
  TGI: > 100 µM
786-0 renal
  TGI: > 100 µM
NCI-H226 lung
  TGI: > 100 µM
SK-MEL-2 melanoma
  TGI: > 100 µM
HCT-116 colon
  TGI: > 100 µM
KM12 colon
  TGI: > 100 µM
HOP-62 NSCLC
  TGI: > 100 µM
EKVX NSCLC
  TGI: > 100 µM
HCC-2998 colon
  TGI: > 100 µM
HL-60(TB) leukemia
  TGI: > 100 µM
IGROV1 ovarian
  TGI: > 100 µM
HT29 colon
  TGI: > 100 µM
SF-539 CNS
  TGI: > 100 µM
SW-620 colon
  TGI: > 100 µM
MDA-MB-435
  TGI: > 100 µM
MALME-3M melanoma
  TGI: > 100 µM
T-47D breast
  TGI: > 100 µM
SK-MEL-28 melanoma
  TGI: > 100 µM
UACC-257 melanoma
  TGI: > 100 µM
DU-145 prostate
  TGI: > 100 µM
OVCAR-3 ovarian
  TGI: > 100 µM
OVCAR-8 ovarian
  TGI: > 100 µM

## CCOC(=O)c1sc2c(c1OC(=O)c1ccco1)c(=O)n(-c1ccccc1)c(=S)n2-c1ccccc1
HOP-92 NSCLC
  TGI: 71.3 µM
K-562 leukemia
  TGI: > 100 µM
NCI/ADR-RES ovarian
  TGI: 57 µM
UO-31 renal
  TGI: 2.71 µM
UACC-62 melanoma
  TGI: 84.3 µM
ACHN renal
  TGI: 83.8 µM
CAKI-1 renal
  TGI: 82.8 µM
A498 renal
  TGI: 60.4 µM
SK-MEL-5 melanoma
  TGI: 32.1 µM
NCI-H23 lung
  TGI: > 100 µM
MOLT-4 leukemia
  TGI: 49.3 µM
OVCAR-5 ovarian
  TGI: > 100 µM
MCF7 breast
  TGI: > 100 µM
MDA-MB-231 breast
  TGI: > 100 µM
SNB-75 CNS
  TGI: > 100 µM
NCI-H460 lung
  TGI: 45.5 µM
SN12C renal
  TGI: 84.4 µM
A549 NSCLC
  TGI: > 100 µM
SNB-19 CNS
  TGI: > 100 µM
COLO 205 colon
  TGI: 38.1 µM
LOX IMVI melanoma
  TGI: 61.7 µM
CCRF-CEM leukemia
  TGI: > 100 µM
MDA-N
  TGI: > 100 µM
OVCAR-4 ovarian
  TGI: > 100 µM
TK-10 renal
  TGI: > 100 µM
SF-295 CNS
  TGI: > 100 µM
RPMI-8226 leukemia
  TGI: 78.5 µM
HCT-15 colon
  TGI: > 100 µM
M14 melanoma
  TGI: > 100 µM
NCI-H522 lung
  TGI: > 100 µM
SK-OV-3 ovarian
  TGI: > 100 µM
RXF 393 renal
  TGI: 62 µM
HS 578T breast
  TGI: > 100 µM
SF-268 CNS
  TGI: > 100 µM
U251 CNS
  TGI: > 100 µM
PC-3 prostate
  TGI: 50 µM
786-0 renal
  TGI: > 100 µM
NCI-H226 lung
  TGI: 87.2 µM
HCT-116 colon
  TGI: > 100 µM
KM12 colon
  TGI: > 100 µM
HOP-62 NSCLC
  TGI: > 100 µM
EKVX NSCLC
  TGI: 55.4 µM
HCC-2998 colon
  TGI: > 100 µM
HL-60(TB) leukemia
  TGI: 52.2 µM
IGROV1 ovarian
  TGI: 36.3 µM
HT29 colon
  TGI: > 100 µM
SF-539 CNS
  TGI: 97.9 µM
SW-620 colon
  TGI: > 100 µM
MDA-MB-435
  TGI: 93 µM
MALME-3M melanoma
  TGI: 60.6 µM
T-47D breast
  TGI: > 100 µM
SK-MEL-28 melanoma
  TGI: > 100 µM
UACC-257 melanoma
  TGI: > 100 µM
DU-145 prostate
  TGI: > 100 µM
OVCAR-3 ovarian
  TGI: 76.9 µM
OVCAR-8 ovarian
  TGI: 70.8 µM
